Reference: patent publication US20150045322A1, “COMBINATION TREATMENT COMPRISING SULPHATED GLYCOSAMINOGLYCANS FOR INDUCING LABOR” (DILAFOR AB, priority 2012, published 2015)
Positions of bridges follow the written chain, without caps; N, C: chain ends. Non-standard residues stand in square brackets, D forms with d. Residues, ends and D or L forms follow the SMILES beside them. Orn = NCCC[C@H](N)C(=O)O; Mpa = O=C(O)CCS

What was measured:
[1] = system: Human uterine smooth muscle cells; assay: Intracellular Ca2+ with Fluo-4 and confocal live cell imaging; assay type: cell-based
Excerpt: Human uterine smooth muscle cells were established in a culture. A method to measuring intracellular Ca^2+ with the calcium indicator dye Fluo-4 and live cell imaging with confocal microscopy was established for the cells.

[2] = comparison value for heparin, species not stated; cited from earlier work

NCCOB(c1ccccc1)c1ccccc1 [2-APB, 2-Aminoethoxydiphenyl borate]
effect on oxytocin and oxytocin/DF01 stimulated Ca2+-transport ([1]; 100 μM, 30 min of incubation): decreased strongly

CCOc1ccc(C[C@H]2NC(=O)CCSSC[C@@H](C(=O)N3CCC[C@H]3C(=O)N[C@@H](CCCN)C(=O)NCC(N)=O)NC(=O)[C@H](CC(N)=O)NC(=O)[C@H]([C@@H](C)O)NC(=O)[C@H]([C@@H](C)CC)NC2=O)cc1 [Atosiban] ([Mpa][dY](Et)ITNCP[Orn]G-NH2; disulfide 1-6)
effect on Ca2+ transport by oxytocin and the combination oxytocin/DF01 ([1]; 10^−6 M): clearly inhibited

CC[C@H](C)[C@@H]1NC(=O)[C@H](Cc2ccc(O)cc2)NC(=O)[C@@H](N)CSSC[C@@H](C(=O)N2CCC[C@H]2C(=O)N[C@@H](CC(C)C)C(=O)NCC(N)=O)NC(=O)[C@H](CC(N)=O)NC(=O)[C@H](CCC(N)=O)NC1=O [oxytocin]
concentration giving maximum effect on Ca2+-influx to the cytosol ([1]; dose-dependent effect): 0.05 IU/ml

heparin
corresponding (subcutaneous) bioavailability [2]: about 10%
